Test results as given in patent US8551977B2, “Use of perifosine in combination with antimetabolites for the treatment of benign and malignant oncoses in humans and mammals” (AEterna Zentaris GmbH, priority 2002, dated 2013).

How the values were obtained:
[1] = system: DMBA-induced rat mammary carcinoma; test: DMBA-induced rat mammary carcinoma model; type: in vivo; conditions: initial tumor weight = 100%
From the text: (§1) • In vivo Experiment: DMBA-induced rat mammary carcinoma model • Experimental Animal: Sprague-Dawley rat, female • Procedure: The mammary carcinoma was induced by a single oral dose of DMBA. The animals received perifosine from day 0 to day 14 and were observed up to day 42. The weight of the tumor mass was estimated by palpation and comparison with plastic models.
as §1, with “eight” for “weight”, “tumor was” for “tumor”

[2] = system: tumor cells; conditions: Patel et al. 2002; cited from earlier work
[3] = Example 3, female Sprague-Dawley rat, Perifosine 14×6.81 mg/kg p.o., Adriamycin 4×2.15 mg/kg i.p.
[4] = Example 1, female Sprague-Dawley rat, Perifosin 14×6.81 mg/kg p.o., Cis-platinum 4×1 mg/kg i.p.
[5] = Example 2, female Sprague-Dawley rat, Perifosine 14×6.81 mg/kg p.o., Cyclophosphamide 100 mg/kg i.v.

SMILES | Day 21, Change in % (tumor weight) [1, 3] [%] | Day 21, Change in % (tumor weight) [1, 4] [%] | Day 21, Change in % (tumor weight) [1, 5] [%] | cell cycle block [2]
COc1cccc2c1C(=O)c1c(O)c3c(c(O)c1C2=O)C[C@@](O)(C(=O)CO)C[C@@H]3O[C@H]1C[C@H](N)[C@H](O)[C@H](C)O1 [Adriamycin, reference compound] | 781 |  |  | 
N.N.[Cl][Pt][Cl] [Cis-platinum, reference compound] |  | 410 |  | 
O=P1(N(CCCl)CCCl)NCCCO1 (stereo not shown) [Cyclophosphamide, reference compound] |  |  | 500 | 
CCCCCCCCCCCCCCCCCCOP(=O)([O-])OC1CC[N+](C)(C)CC1 [Perifosin (D-21266), perifosine] | −25 | −25 | −25 | blocks tumor cells in the G1-S and G2-M phase of the cell cycle
